We go through one compound from PMC10269926, “The LiaFSR-LiaX System Mediates Resistance of Enterococcus faecium to Peptide Antibiotics and to Aureocin A53- and Enterocin L50-Like Bacteriocins” (Microbiology Spectrum, 2023).

Assay [1] relates to E. faecium LMGT 2783 and its spontaneous mutants. In words: Effect of NaCl and SDS on bacterial growth (Bioscreen). It counts as cell-based, Enterococcus faecium. The conditions noted are these: WT LMGT 2783 and all mutants, BHI, 37°C, 24 h, inoculum 1:100, lowest concentration (wt/vol) with at least 50% growth inhibition, at least triplicate. How it is done: (§1) The sensitivity of the mutants to AurA53- and EntL50-like bacteriocins, nisin, RAM, GRA, carbenicillin, and chlortetracycline was determined using microtiter plates with serial 2-fold dilutions of the antimicrobials, as described previously ([41]). The lowest concentration of the agent reducing visible bacterial growth by at least 50% was taken as the MIC (MIC50) value. The sensitivity to other antibiotics was determined using agar plates with antibiotic strips as described previously ([12]). The antibiotic concentration at the point where the inhibition zone intersected the strip was taken as the MIC value. The antibiotic susceptibilities of E. faecium LMGT 2783, MUT_130 to MUT_132, MUT_136 to MUT_139, and MUT_140 and MUT_141 were tested in ISO-BHI medium (Oxoid) supplemented with 5 μg/mL Em when appropriate, while those of E. faecium MUT_142 to MUT_149 were tested in CM17 medium supplemented with 5 μg/mL Em. To study the effects of NaCl and sodium dodecyl sulfate (SDS) on bacterial growth, saturated overnight cultures of E. faecium were used for inoculation at a dilution of 1:100 in BHI medium with serial dilutions of these compounds at concentrations of 0.5 to 10% (wt/vol) and 3.0 × 10^−2 to 2.5 × 10^−3% (wt/vol), respectively. […]

Assay [2] deals with E. faecium MUT_132. The assay can be described thus: Effect of SDS on bacterial growth (Bioscreen). The format is cell-based, Enterococcus faecium. Here is the method:
as §1

The structures appear in SMILES notation.

As to `CCCCCCCCCCCCOS(=O)(=O)[O-].[Na+]` [SDS, sodium dodecyl sulfate], the MIC50 in assay [1] was 0.01%; in assay [2] (MUT_132, BHI, 37°C, 24 h, Bioscreen C, lowest concentration (wt/vol) with at least 50% growth inhibition, at least triplicate), 0.005%. Moreover, the “Fold increase in susceptibility” value in assay [2] (MUT_132 compared with the other strains) was 2 fold.
